≈ marks a conversion by molar mass, not a printed value. Where only a bound is given, the exact number is not on record here.

Common to all, as to format: cell-based
For assay [1], the system named is Staph. aureus ATCC 6538P. Put plainly: MIC by agar dilution, Staph. aureus ATCC 6538P. The following applies: Staphylococcus aureus, ATCC6538P, 17 h; Staph. aureus ATCC 6538P; agar dilution, Mueller-Hinton agar; read-out: Minimal Inhibitory Concentration (MIC). The method in brief:
(§1)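 Agar dilution in Mueller-Hinton agar with two-fold compound dilutions. Each strain is inoculated at 10^6 CFU per ml and incubated at 35°-37° C. for 17±1 hours. Ceftazidime and cefotaxime serve as controls.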
For orientation: In agar dilution the substance is mixed into plates at graded concentrations.

Assay [2] concerns Staph. aureus Smith. Put plainly: MIC by agar dilution, Staph. aureus Smith. The following applies: Staphylococcus aureus, 17 h, Mueller-Hinton agar, read-out: Minimal Inhibitory Concentration (MIC). Summed up: as §1
Assay [3] concerns Staph. aureus C-5216. Put plainly: MIC by agar dilution, Staph. aureus C-5216. To be noted: Staphylococcus aureus, C5216, 17 h, Mueller-Hinton agar, read-out: Minimal Inhibitory Concentration (MIC). The method in brief: as §1
For assay [4], the system named is K. pneumoniae NCTC 9632. Put plainly: MIC by agar dilution, K. pneumoniae NCTC 9632. To be noted: Klebsiella pneumoniae, NCTC9632, 17 h; K. pneumoniae NCTC 9632; agar dilution, Mueller-Hinton agar; read-out: Minimal Inhibitory Concentration (MIC). The method in brief: as §1
Assay [5] deals with P. vulgaris NCTC 8313. Put plainly: MIC by agar dilution, P. vulgaris NCTC 8313. To be noted: Proteus vulgaris, NCTC8313, 17 h; P. vulgaris NCTC 8313; agar dilution, Mueller-Hinton agar; read-out: Minimal Inhibitory Concentration (MIC). The method in brief: as §1
In assay [6] the test system is M. morganii DY-1. Put plainly: MIC by agar dilution, M. morganii DY-1. The following applies: Morganella morganii, DY1, 17 h; M. morganii DY-1; agar dilution, Mueller-Hinton agar; read-out: Minimal Inhibitory Concentration (MIC). Summed up: as §1
Assay [7] relates to S. epidermidis ATCC 12228. Put plainly: MIC by agar dilution, S. epidermidis ATCC 12228. To be noted: Staphylococcus epidermidis, ATCC12228, 17 h; S. epidermidis ATCC 12228; agar dilution, Mueller-Hinton agar; read-out: Minimal Inhibitory Concentration (MIC). Summed up: as §1
For assay [8], the system named is E. coli NIHJ JC-2. Put plainly: MIC by agar dilution, E. coli NIHJ JC-2. To be noted: Escherichia coli, NIHJJC2, 17 h; E. coli NIHJ JC-2; agar dilution, Mueller-Hinton agar; read-out: Minimal Inhibitory Concentration (MIC). Summed up: as §1
The subject of assay [9] is Staph. aureus C-57. Put plainly: MIC by agar dilution, Staph. aureus C-57. The following applies: Staphylococcus aureus, C57, 17 h, Mueller-Hinton agar, read-out: Minimal Inhibitory Concentration (MIC). The method in brief:
as §1

For assay [10], the system named is Ent. aerogenes IFO 12979. Put plainly: MIC by agar dilution, Ent. aerogenes IFO 12979. The following applies: Klebsiella aerogenes, IFO12979, 17 h, Mueller-Hinton agar, read-out: Minimal Inhibitory Concentration (MIC). The method in brief:
as §1

Assay [11] deals with Ser. marcescens IFO 12648. Put plainly: MIC by agar dilution, Ser. marcescens IFO 12648. To be noted: Serratia marcescens, IFO12648, 17 h; Ser. marcescens IFO 12648; agar dilution, Mueller-Hinton agar; read-out: Minimal Inhibitory Concentration (MIC). The method in brief: as §1
Assay [12] concerns Prov. stuartii IFO 12930. Put plainly: MIC by agar dilution, Prov. stuartii IFO 12930. The following applies: Providencia stuartii, IFO12930, 17 h, Mueller-Hinton agar, read-out: Minimal Inhibitory Concentration (MIC). The method in brief:
as §1

The test system of assay [13] is B. subtilis ATCC 6633. Put plainly: MIC by agar dilution, B. subtilis ATCC 6633. The following applies: Bacillus subtilis, ATCC6633, 17 h; B. subtilis ATCC 6633; agar dilution, Mueller-Hinton agar; read-out: Minimal Inhibitory Concentration (MIC). Summed up:
as §1

Assay [14] deals with E. coli No. 29. Put plainly: MIC by agar dilution, E. coli No. 29. The following applies: Escherichia coli, 17 h; E. coli No. 29; agar dilution, Mueller-Hinton agar; read-out: Minimal Inhibitory Concentration (MIC). Summed up:
as §1

Assay [15] has as its system Ps. aeruginosa ATCC 10145. Put plainly: MIC by agar dilution, Ps. aeruginosa ATCC 10145. To be noted: Pseudomonas aeruginosa, ATCC10145, 17 h, Mueller-Hinton agar, read-out: Minimal Inhibitory Concentration (MIC). Summed up: as §1
Assay [16] deals with Staph. aureus C-5113. Put plainly: MIC by agar dilution, Staph. aureus C-5113. The following applies: Staphylococcus aureus, C5113, 17 h, Mueller-Hinton agar, read-out: Minimal Inhibitory Concentration (MIC). Summed up: as §1
The subject of assay [17] is Ps. aeruginosa NCTC 10490. Put plainly: MIC by agar dilution, Ps. aeruginosa NCTC 10490. To be noted: Pseudomonas aeruginosa, NCTC10490, 17 h, Mueller-Hinton agar, read-out: Minimal Inhibitory Concentration (MIC). Summed up: as §1
Assay [18] relates to Ent. cloacae IFO 13535. Put plainly: MIC by agar dilution, Ent. cloacae IFO 13535. To be noted: Enterobacter cloacae, IFO13535, 17 h; Ent. cloacae IFO 13535; agar dilution, Mueller-Hinton agar; read-out: Minimal Inhibitory Concentration (MIC). The method in brief: as §1
Assay [19] relates to Ps. aeruginosa DY-2. Put plainly: MIC by agar dilution, Ps. aeruginosa DY-2. To be noted: Pseudomonas aeruginosa, DY2, 17 h; Ps. aeruginosa DY-2; agar dilution, Mueller-Hinton agar; read-out: Minimal Inhibitory Concentration (MIC). The method in brief:
as §1

Assay [20] has as its system E. coli DY-1. Put plainly: MIC by agar dilution, E. coli DY-1. To be noted: Escherichia coli, DY1, 17 h; E. coli DY-1; agar dilution, Mueller-Hinton agar; read-out: Minimal Inhibitory Concentration (MIC). The method in brief:
as §1

In the case of `CO/N=C(\C(=O)N[C@@H]1C(=O)N2C(C(=O)[O-])=C(C[n+]3ccn4c(C(C)O)ccc4c3)CS[C@H]12)c1nsc(N)n1` (stereo partly drawn) [Ex. 51, 7-β-[(Z)-2-(5-amino-1,2,4-thiadiazol-3-yl)-2-methoxyiminoacetamido]-3-[6-(1-hydroxyethyl)pyrrolo[1,2-a]-pyrazinium-2-yl]methyl-3cephem-4-carboxylate], the MIC in [1] stood at 0.78 µg/mL (≈ 1.4 µM); in [2], 1.56 µg/mL (≈ 2.79 µM); in [3], 1.56 µg/mL (≈ 2.79 µM); in assay [4] it was 0.05 µg/mL (≈ 0.0895 µM); in [5] it was 0.05 µg/mL (≈ 0.0895 µM); in [6], 0.1 µg/mL (≈ 0.179 µM). For the same compound, the MIC in assay [7] came out at 0.1 µg/mL (≈ 0.179 µM); in assay [8], 0.025 µg/mL (≈ 0.0448 µM); in [9], 50 µg/mL (≈ 89.5 µM); in assay [10] it was 0.025 µg/mL (≈ 0.0448 µM); in assay [11], 0.05 µg/mL (≈ 0.0895 µM); in [12], 0.012 µg/mL (≈ 0.0215 µM). For the same compound, the MIC came out at 0.2 µg/mL (≈ 0.358 µM) in [13]; 0.025 µg/mL (≈ 0.0448 µM) in [14]; 1.56 µg/mL (≈ 2.79 µM) in assay [15]; 1.56 µg/mL (≈ 2.79 µM) in [16]; 0.2 µg/mL (≈ 0.358 µM) in [17]; 0.1 µg/mL (≈ 0.179 µM) in assay [18]. The MIC in assay [19] amounted to 3.13 µg/mL (≈ 5.6 µM); in assay [20] it was 0.025 µg/mL (≈ 0.0448 µM).
As to `CON=C(C(=O)NC1C(=O)N2C(C(=O)[O-])=C(C[n+]3ccn4c(C#N)ccc4c3)CSC12)c1csc(N)n1` (stereo not drawn) [Ex. 13, 7-β-[(Z)-2-(2-aminothiazol-4-yl)-2-methoxyiminoacetamido]-3-(6-cyanopyrrolo[1,2-a]pyrazinium-2-yl)methyl-3-cephem-4-carboxylate], the MIC is 0.39 µg/mL (≈ 0.724 µM) in assay [1]; 1.56 µg/mL (≈ 2.9 µM) in assay [2]; 0.78 µg/mL (≈ 1.45 µM) in [3]; 0.025 µg/mL (≈ 0.0464 µM) in [4]; ≤ 0.006 µg/mL in [5]; 0.025 µg/mL (≈ 0.0464 µM) in assay [6]. Further, the MIC in assay [7] was 0.1 µg/mL (≈ 0.186 µM); in [8], 0.012 µg/mL (≈ 0.0223 µM); in [9], 25 µg/mL (≈ 46.4 µM); in [10], 0.012 µg/mL (≈ 0.0223 µM); in [11], 0.012 µg/mL (≈ 0.0223 µM); in [12], ≤ 0.006 µg/mL. The MIC in assay [13] stood at 0.2 µg/mL (≈ 0.371 µM); in assay [14], 0.012 µg/mL (≈ 0.0223 µM); in assay [15], 0.78 µg/mL (≈ 1.45 µM); in assay [16] it was 0.78 µg/mL (≈ 1.45 µM); in assay [17], 0.39 µg/mL (≈ 0.724 µM); in [18], 0.05 µg/mL (≈ 0.0928 µM). Moreover, the MIC worked out at 3.13 µg/mL (≈ 5.81 µM) in assay [19] and 0.012 µg/mL (≈ 0.0223 µM) in assay [20].
As for `CON=C(C(=O)NC1C(=O)N2C(C(=O)[O-])=C(C[n+]3ccn4c(C(=O)O)ccc4c3)CSC12)c1csc(N)n1` (stereo not drawn) [Ex. 17, 7-β-[(Z)-2-(2-aminothiazol-4-yl)-2-methoxyiminoacetamido]-3-(6-carboxypyrrolo[1,2-a]pyrazinium-2-yl)methyl-3-cephem-4-carboxylate], the MIC is 0.39 µg/mL (≈ 0.699 µM) in [1]; 0.78 µg/mL (≈ 1.4 µM) in assay [2]; 1.56 µg/mL (≈ 2.8 µM) in assay [3]; 0.025 µg/mL (≈ 0.0448 µM) in [4]; 0.012 µg/mL (≈ 0.0215 µM) in [5]; 0.025 µg/mL (≈ 0.0448 µM) in assay [6]. The MIC in assay [7] was 0.1 µg/mL (≈ 0.179 µM); in assay [8], 0.025 µg/mL (≈ 0.0448 µM); in assay [9], 25 µg/mL (≈ 44.8 µM); in assay [10], 0.025 µg/mL (≈ 0.0448 µM); in assay [11], 0.05 µg/mL (≈ 0.0897 µM); in [12] it was ≤ 0.006 µg/mL. For the same compound, the MIC was 0.1 µg/mL (≈ 0.179 µM) in assay [13]; 0.012 µg/mL (≈ 0.0215 µM) in assay [14]; 1.56 µg/mL (≈ 2.8 µM) in [15]; 1.56 µg/mL (≈ 2.8 µM) in [16]; 0.2 µg/mL (≈ 0.359 µM) in [17]; 0.39 µg/mL (≈ 0.699 µM) in [18]. The MIC in [19] was 3.13 µg/mL (≈ 5.61 µM); in assay [20] it was 0.025 µg/mL (≈ 0.0448 µM).
